Consider 22 compounds from patent US20210267739A1, “DEVICES AND METHODS FOR CONTINUOUS DRUG DELIVERY VIA THE MOUTH” (SynAgile Corporation, priority 2013, published 2021).

The nature of data set [1]: Vapor pressures of propellant liquids. It counts as physicochemical. As for the experimental part:
For propellant-driven pumps, it is preferred to use propellants whose pressure increases by less than about 80%, 60%, or 40% when the temperature is raised from 37° C. to 55° C. As examples, the pressure of Dupont Dymel HFC-134a (1,1,1,2-tetrafluoroethane) increases from 938 kPa (absolute) at 37° C. to 1,493 kPa (absolute) at 55° C., an increase of 59%. The pressure of Dupont Dymel HFC-227ea/P ([…]) increases from about 700 kPa (absolute) at 37° C. to 1,000 kPa (absolute) at 55° C., an increase of 42%. In order to minimize the effect of temperature fluctuations on the propellants, a number of methods can be employed. In one embodiment, an insulating material can be used to decrease the sensitivity to changes in ambient temperature by insulating the propellant and drug reservoirs with materials of low thermal conductivity. Materials such as closed cell neoprene foams, can be used in this embodiment. In another embodiment, a material with very low thermal conductivity can be utilized, such as a ceramic.

For data set [2] the following is noted: cited from earlier work; for Approximate Pressure, bars at 37° C.: vapor pressure of propellant liquid at 37° C.
The conditions of data set [3]: in vivo; cited from earlier work.
The subject of data set [4] is mouth of healthy subject. The format is in vivo. As for the experimental part:
The infusion was made into the cheek pouch of the lower left jaw, between the gum and the cheek. The pump infused the drug for 8 hours over a total period of 9 hours and 10 minutes.
The solution was infused using a Cane CronoPAR pump. […] The drug infusion was continuous, but was stopped during lunch for a period of 70 minutes. According to the manual, the Cane CronoPAR pump infuses the drug in boluses of 22 μL. […] Lodosyn tablets (25 mg carbidopa) were taken orally twice during the infusion period, for a total dose of 50 mg carbidopa.
The solution was infused in the cheek pouch of the lower right jaw, i.e., between the gum and the cheek.
(§1) The solution was infused using a Cane CronoPAR pump.
The infusion was made into the cheek pouch of the lower right jaw, between the gum and the cheek. The pump infused the drug for 5 hours and 45 minutes over a total period of 7 hours and 30 minutes.
The solution was infused using a Cane CronoPAR pump. […] Pump delivery was stopped during lunch for 1 hour 45 minutes for lunch. According to the manual, the Cane CronoPAR pump infuses the drug in boluses of 22 μL.
The same healthy subject infused into their mouth about 0.69 g LD and 0.07 g carbidopa, in 3.0 mL of 1.2M LD aqueous suspension, of unknown pH. The infusion was made into the cheek pouch of the lower right jaw, between the gum and the cheek. The pump infused the drug for 8 hours and 10 minutes over a total period of 9 hours and 5 minutes.
as §1

Data set [5] relates to mouth of healthy subject. Kind of data set: Salivation and swallowing during intra-oral infusion. The format is in vivo, human. As for the experimental part: The subject recorded the number of times that they swallowed over two five minute periods. They swallowed 10 and 11 times during these two five minute periods, equal to an average rate of 2.1 swallows per minute. By contrast, in two other 5 minute periods when the subject was not infusing the drug, they swallowed 6 times and 5 times, equal to an average rate of 1.1 swallows per minute.
During two five-minute periods the subject recorded the number of times that they swallowed during the infusion. They swallowed 6 times during each of these two five minute periods, equal to an average rate of 1.2 swallows per minute. This is consistent with the previously measured rate of 1.1 swallows per minute observed when not infusing a drug and is half the 2.1 swallows per minute rate the subject observed when infusing LDEE.

`FCC(F)(F)F` [1,1,1,2 tetrafluoroethane]: the “increase of pressure from 37° C. to 55° C.” value in data set [1] turned out to be 59%. Besides, in data set [2], the “pressure (absolute) at 37° C.” value is recorded as 938 kPa; the “pressure (absolute) at 55° C.” value is reported as 1,493 kPa; the “Approximate Pressure, bars at 37° C.” value is 9.3 bars.

Regarding `FC(C(F)(F)F)C(F)(F)F` [1,1,1,2,3,3,3 heptafluoropropane], the “increase of pressure from 37° C. to 55° C.” value in data set [1] is given as 42%. Further, in data set [2], the “pressure (absolute) at 37° C.” value is “about 700 kPa”; the “pressure (absolute) at 55° C.” value is given as 1,000 kPa; the “Approximate Pressure, bars at 37° C.” value is reported as 4.6 bars.

On to `FC(F)(F)CC(F)(F)F` [1,1,1,3,3,3 hexafluoropropane], for which the “Approximate Pressure, bars at 37° C.” value in data set [2] is 4.0 bars. With `CC(F)F` [1,1-difluoroethane], in data set [2], the “Approximate Pressure, bars at 37° C.” value is on record as 8.4 bars. On to `FCCF` [1,2-difluoroethane], for which the “Approximate Pressure, bars at 37° C.” value in data set [2] is recorded as 1.9 bars.

Consider `CCCCF` [1-fluorobutane], for which the “Approximate Pressure, bars at 37° C.” value in data set [2] was 1.3 bars. Turning to `CCCF` [1-fluoropropane], the “Approximate Pressure, bars at 37° C.” value in data set [2] is reported as 4.1 bars. Consider `CCC(C)F` (stereo not drawn) [2-fluorobutane], for which the “Approximate Pressure, bars at 37° C.” value in data set [2] is on record as 1.6 bars.

`CC(C)F` [2-fluoropropane]: the “Approximate Pressure, bars at 37° C.” value in data set [2] is 5 bars. Regarding `CCN(CC)C(=O)/C(C#N)=C/c1cc(O)c(O)c([N+](=O)[O-])c1` [Entacapone], the plasma half-life in data set [3] is 0.4 to 0.7 h. In the case of `C=CCC` [Example 1-butene, 1-butene], the “Approximate Pressure, bars at 37° C.” value in data set [2] is reported as 4.2 bars. Regarding `CC=CC` [Example 2-butene, 2-butene], the “Approximate Pressure, bars at 37° C.” value in data set [2] is 3.2 bars. Take `CCOC(=O)[C@@H](N)Cc1ccc(O)c(O)c1` [LDEE, levodopa ethyl ester]: in data set [4] (24 hours post-infusion), the “condition of the mouth post-infusion” value is “dead, grey, peeling skin”. In data set [4] (during or after infusion, healthy subject), the tooth hypersensitivity entry is listed as “hypersensitivity at the gum line of one tooth”. In addition, the “time post-infusion at which the tissue appears normal” value in data set [4] (healthy subject) is on record as 4 days. Besides, the “irritation or discomfort in the mouth during the infusion” value in data set [4] (infusion into cheek pouch, healthy subject) is “no irritation or discomfort in the mouth”. Further, the stimulation of salivation result in data set [5] (during infusion) is given as “stimulated in the subject salivation”. The “average rate of swallowing during infusion” value in data set [5] (two five minute periods) came out at 2.1 swallows per minute. Consider `Cc1ccc(C(=O)c2cc(O)c(O)c([N+](=O)[O-])c2)cc1` [Tolcapone], for which the plasma half-life in data set [3] is 2 to 3 h. For the compound `CCCC` [butane], the “Approximate Pressure, bars at 37° C.” value in data set [2] is listed as 3.5 bars. Turning to `CCOCC` [diethyl ether], in data set [2], the “Approximate Pressure, bars at 37° C.” value is given as 1.1 bars. With `CCC(C)C` [isopentane], in data set [2], the “Approximate Pressure, bars at 37° C.” value is 1.4 bars. For the compound `CCOC` [methyl ethyl ether], the “Approximate Pressure, bars at 37° C.” value in data set [2] is recorded as 3 bars. `CC(C)(C)C` [neopentane]: the “Approximate Pressure, bars at 37° C.” value in data set [2] is given as 2.4 bars. For the compound `FC1(F)C(F)(F)C(F)(F)C1(F)F` [octafluorocyclobutane], the “Approximate Pressure, bars at 37° C.” value in data set [2] is on record as 4.3 bars.

In the case of `CCC` [propane], the “Approximate Pressure, bars at 37° C.” value in data set [2] is 12.8 bars.

As to `C=CC` [propene], the “Approximate Pressure, bars at 37° C.” value in data set [2] is 15.5 bars.
